Patent US20180177749A1, “USE OF CYP EXPRESSION TO DIRECT THERAPEUTIC INTERVENTION IN CANCER” (REGENTS OF THE UNIVERSITY OF MINNESOTA, priority 2016, published 2018)

Tested on: MDA-MB-231
Experiment: MTT cell proliferation assay, MDA-MB-231
Assay type: cell-based, human
Protocol: The human breast cancer cell lines MCF-7, T47D, and MDA-MB-231 described above were grown in Minimal Essential Medium (MCF-7), RPMI 1640 with insulin (0.2 U/mL) and 1 mM Na pyruvate (T47D) or DMEM containing 10% fetal bovine serum (FBS) (MDA-MB-231), which was defined as complete medium (CM). Cells were grown at 37° C. in a 5% CO2 incubator. […] MTT was then added (5 mg/ml), and after 2 h of incubation, the plates were centrifuged. The supernatant was removed; DMSO was added, and the absorbance was read at 540 nm with a BioTek 96-well plate reader.

With `CCCCCCNC(=N)NC(=N)NCc1ccccc1` [HBB, N1-hexyl-N5-benzyl-biguanide] the IC50 (Homo sapiens, MDA-MB-231, Triple negative) was 20.5 µM and the “growth inhibition abrogated by concurrent (±)-14,15-EET” value (MDA-MB-231, (±)-14,15-EET 1 μM, 24 hours) was “no dependence on (±)-14,15-EET”.
